Source: BigSolDB 2.1

O=[N+]([O-])c1ccc(Cl)c(Cl)c1
solubility (mole fraction)
Conditions | in cyclohexane | in ethyl acetate | in isopropanol | in n-butanol | in n-heptane | in n-hexane | in n-propanol | in tetrachloromethane
278.15 K | 0.0568 | 0.249 | 0.0157 | 0.0389 | 0.0296 | 0.0293 | 0.0506 | 0.129
280.65 K | 0.0632 | 0.332 | 0.0199 | 0.0443 | 0.0326 | 0.0363 | 0.0519 | 0.182
283.15 K | 0.0703 | 0.405 | 0.0221 | 0.0486 | 0.0424 | 0.0425 | 0.0537 | 0.244
285.65 K | 0.0774 | 0.463 | 0.0272 | 0.0542 | 0.0451 | 0.0476 | 0.0582 | 0.302
288.15 K | 0.0865 | 0.541 | 0.0318 | 0.0593 | 0.0505 | 0.0518 | 0.0634 | 0.362
290.65 K | 0.111 | 0.602 | 0.036 | 0.0665 | 0.0564 | 0.0572 | 0.0724 | 0.435
293.15 K | 0.154 | 0.668 | 0.0439 | 0.0735 | 0.063 | 0.0634 | 0.0819 | 0.511
295.65 K | 0.25 | 0.719 | 0.0615 | 0.0819 | 0.0662 | 0.0699 | 0.0935 | 0.572
298.15 K | 0.343 | 0.778 | 0.0783 | 0.0999 | 0.0729 | 0.0824 | 0.115 | 0.644
300.65 K | 0.511 | 0.822 | 0.0981 | 0.118 | 0.0908 | 0.115 | 0.139 | 0.722
303.15 K | 0.751 | 0.866 | 0.124 | 0.136 | 0.132 | 0.173 | 0.173 | 0.792

O=[N+]([O-])c1cccc(Cl)c1Cl
solubility (mole fraction)
Conditions | in cyclohexane | in ethyl acetate | in isopropanol | in n-butanol | in n-heptane | in n-hexane | in n-propanol | in tetrachloromethane
278.15 K | 0.0137 | 0.212 | 0.00992 | 0.0254 | 0.00633 | 0.00535 | 0.0222 | 0.0619
280.65 K | 0.0156 | 0.269 | 0.0116 | 0.0331 | 0.00962 | 0.00888 | 0.0247 | 0.0811
283.15 K | 0.0184 | 0.331 | 0.0148 | 0.0401 | 0.0128 | 0.0112 | 0.0275 | 0.097
285.65 K | 0.0199 | 0.388 | 0.0169 | 0.0453 | 0.0146 | 0.0134 | 0.0295 | 0.11
288.15 K | 0.0212 | 0.435 | 0.0199 | 0.0501 | 0.017 | 0.015 | 0.0318 | 0.12
290.65 K | 0.0266 | 0.486 | 0.0243 | 0.0527 | 0.0212 | 0.0172 | 0.035 | 0.13
293.15 K | 0.0317 | 0.521 | 0.0286 | 0.0563 | 0.0251 | 0.0214 | 0.0387 | 0.15
295.65 K | 0.0377 | 0.569 | 0.0336 | 0.0589 | 0.0276 | 0.0231 | 0.0421 | 0.194
298.15 K | 0.0421 | 0.592 | 0.0394 | 0.0614 | 0.0322 | 0.0245 | 0.0456 | 0.241
300.65 K | 0.0474 | 0.645 | 0.0452 | 0.0645 | 0.0345 | 0.0277 | 0.0511 | 0.312
303.15 K | 0.0549 | 0.682 | 0.05 | 0.0679 | 0.038 | 0.031 | 0.0575 | 0.38
